Assay results as given in patent US6896895B2, “Carotenoid esters, carotenoid-enriched feeds, and methods of pigmenting foods and foodstuffs” (DSM IP Assets B.V., priority 2000, dated 2005).

Tests used:
[1] = Carotenoid ester content and deposition rate in egg yolk of laying hens (HPLC); type: in vivo, laying hens (ISA Brown); set-up: Deposition Rate Value: unit not given here; settings: for Deposition Rate Target Values % of Controls / Ethyl β-apo-8′-carotenoate Equivalents % of Controls / Deposition Rate % of Controls / Deposition Rate Target Values / Ethyl β-apo-8′-carotenoate Equivalents / Deposition Rate Value: egg yolk; for Deposition Rate % of Controls / Deposition Rate Value: Table 9
In short: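 Hens were first depleted for at least 28 days on a low-carotenoid basal diet (<2 mg total xanthophylls/kg, also the control diet), then fed mash supplemented with the pigments ad libitum for three weeks. Pooled homogenised yolk was extracted with ethanol/n-hexane and analysed by HPLC, calibrated with all-E ethyl β-apo-8′-carotenoate. Response factors were adjusted by molecular weight, and Z-isomers were corrected by a factor of 1.4.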

egg yolk = assay: Egg yolk colour: reflectance colorimetry and Roche Yolk Colour Fan; type: in vivo, laying hens (ISA Brown); set-up: key to Chroma C*ab Value: CIE L*a*b* chroma C* value; key to Color Fan Value / Color Fan Value Value: visual score on Roche Yolk Colour Fan (RYCF, 1993 version); key to Color Fan Value, Pigmentation: − = off color; + = good color; settings: laying hens; for Color Fan Value % of Controls / Chroma C*ab % of Controls / Color Hue h*ab % of Controls / Chroma C*ab Value / Color Fan Value / Color Hue h*ab Value / Color Fan Value Value / Color Fan Value, Pigmentation: egg yolk
In short: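 ISA Brown laying hens, depleted at least 28 days on low-carotenoid basal diet (<2 mg xanthophylls/kg), fed pigment-supplemented mash ad libitum for three weeks. Pooled yolks of three to six eggs scored with Roche Yolk Colour Fan and measured by reflectance colorimetry (D65, 8°) as CIE L*a*b*, h*, C*; values average four yolk pools.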

[2] = trial H-12/99, 1.0 mg/kg feed, Table 9
[3] = trial H-12/99, 2.0 mg/kg feed, Table 9
[4] = trial H-12/99, 4.0 mg/kg feed, Table 9
[5] = trial H-12/99, 8.0 mg/kg feed, Table 9
[6] = trial H-19/98, 4.0 mg/kg feed, Table 9
[7] = trial H-25/98, 5.0 mg/kg feed, Table 9

Compound: CC1=C(/C=C/C(C)=C/C=C/C(C)=C/C=C/C=C(C)/C=C/C=C(\C)C(=O)OC(C)C)C(C)(C)CCC1 [compound (17), isopropyl beta-apo-8′-carotenoate]
- Deposition Rate Target Values % of Controls ([1]; average over doses, Table 7): 101%
- Ethyl β-apo-8′-carotenoate Equivalents % of Controls ([1]; average over doses, Table 7): 91%
- Deposition Rate % of Controls ([1]; average over doses): 101%
- Deposition Rate Target Values ([1]; trial H-12/99, 1.0 mg/kg feed): 44%
- Deposition Rate Target Values % of Controls ([1]; trial H-12/99, 1.0 mg/kg feed): 97%
- Ethyl β-apo-8′-carotenoate Equivalents ([1]; trial H-12/99, 1.0 mg/kg feed): 2.6 mg/kg
- Ethyl β-apo-8′-carotenoate Equivalents % of Controls ([1]; trial H-12/99, 1.0 mg/kg feed): 97%
- Deposition Rate % of Controls ([1]; trial H-12/99, 1.0 mg/kg feed): 97%
- Deposition Rate Value ([1]; trial H-12/99, 1.0 mg/kg feed): 44
- Deposition Rate Target Values ([1]; trial H-12/99, 2.0 mg/kg feed): 44%
- Deposition Rate Target Values % of Controls ([1]; trial H-12/99, 2.0 mg/kg feed): 100%
- Ethyl β-apo-8′-carotenoate Equivalents ([1]; trial H-12/99, 2.0 mg/kg feed): 5.2 mg/kg
- Ethyl β-apo-8′-carotenoate Equivalents % of Controls ([1]; trial H-12/99, 2.0 mg/kg feed): 94%
- Deposition Rate % of Controls ([1]; trial H-12/99, 2.0 mg/kg feed): 100%
- Deposition Rate Value ([1]; trial H-12/99, 2.0 mg/kg feed): 44
- Deposition Rate Target Values ([1]; trial H-12/99, 4.0 mg/kg feed): 42%
- Deposition Rate Target Values % of Controls ([1]; trial H-12/99, 4.0 mg/kg feed): 85%
- Ethyl β-apo-8′-carotenoate Equivalents ([1]; trial H-12/99, 4.0 mg/kg feed): 9.6 mg/kg
- Ethyl β-apo-8′-carotenoate Equivalents % of Controls ([1]; trial H-12/99, 4.0 mg/kg feed): 81%
- Deposition Rate % of Controls ([1]; trial H-12/99, 4.0 mg/kg feed): 85%
- Deposition Rate Value ([1]; trial H-12/99, 4.0 mg/kg feed): 42
- Deposition Rate Target Values ([1]; trial H-12/99, 8.0 mg/kg feed): 49%
- Deposition Rate Target Values % of Controls ([1]; trial H-12/99, 8.0 mg/kg feed): 104%
- Ethyl β-apo-8′-carotenoate Equivalents ([1]; trial H-12/99, 8.0 mg/kg feed): 23.1 mg/kg
- Ethyl β-apo-8′-carotenoate Equivalents % of Controls ([1]; trial H-12/99, 8.0 mg/kg feed): 96%
- Deposition Rate % of Controls ([1]; trial H-12/99, 8.0 mg/kg feed): 104%
- Deposition Rate Value ([1]; trial H-12/99, 8.0 mg/kg feed): 49
- Deposition Rate Target Values ([1]; trial H-19/98, 4.0 mg/kg feed): 54%
- Deposition Rate Target Values % of Controls ([1]; trial H-19/98, 4.0 mg/kg feed): 117%
- Ethyl β-apo-8′-carotenoate Equivalents ([1]; trial H-19/98, 4.0 mg/kg feed): 11.1 mg/kg
- Ethyl β-apo-8′-carotenoate Equivalents % of Controls ([1]; trial H-19/98, 4.0 mg/kg feed): 95%
- Deposition Rate % of Controls ([1]; trial H-19/98, 4.0 mg/kg feed): 117%
- Deposition Rate Value ([1]; trial H-19/98, 4.0 mg/kg feed): 54
- Deposition Rate % of Controls ([1]; trial H-25/98, 5.0 mg/kg feed): 106%
- Deposition Rate Value ([1]; trial H-25/98, 5.0 mg/kg feed): 50
- Deposition Rate Target Values ([1]; trial H-25/99, 5.0 mg/kg feed): 50%
- Deposition Rate Target Values % of Controls ([1]; trial H-25/99, 5.0 mg/kg feed): 100%
- Ethyl β-apo-8′-carotenoate Equivalents ([1]; trial H-25/99, 5.0 mg/kg feed): 13.3 mg/kg
- Ethyl β-apo-8′-carotenoate Equivalents % of Controls ([1]; trial H-25/99, 5.0 mg/kg feed): 84%
- concentration in the egg yolk ([1]; versus the control): in the range of the control
- Color Fan Value % of Controls (egg yolk; average over doses, Table 7): 105%
- Chroma C*ab % of Controls (egg yolk; average over doses, Table 9): 98%
- Color Fan Value % of Controls (egg yolk; average over doses, Table 9): 105%
- Color Hue h*ab % of Controls (egg yolk; average over doses, Table 9): 101%
- Chroma C*ab % of Controls (egg yolk; trial H-12/99, 1.0 mg/kg feed): 98%
- Chroma C*ab Value (egg yolk; trial H-12/99, 1.0 mg/kg feed): 39
- Color Fan Value (egg yolk; trial H-12/99, 1.0 mg/kg feed): 3
- Color Fan Value % of Controls (egg yolk; trial H-12/99, 1.0 mg/kg feed): 66%
- Color Hue h*ab % of Controls (egg yolk; trial H-12/99, 1.0 mg/kg feed): 101%
- Color Hue h*ab Value (egg yolk; trial H-12/99, 1.0 mg/kg feed): 95
- Color Fan Value % of Controls (egg yolk; [2]): 66%
- Color Fan Value Value (egg yolk; [2]): 3
- Chroma C*ab % of Controls (egg yolk; trial H-12/99, 2.0 mg/kg feed): 100%
- Chroma C*ab Value (egg yolk; trial H-12/99, 2.0 mg/kg feed): 45
- Color Fan Value (egg yolk; trial H-12/99, 2.0 mg/kg feed): 6
- Color Fan Value % of Controls (egg yolk; trial H-12/99, 2.0 mg/kg feed): 104%
- Color Fan Value, Pigmentation (egg yolk; trial H-12/99, 2.0 mg/kg feed): +
- Color Hue h*ab % of Controls (egg yolk; trial H-12/99, 2.0 mg/kg feed): 101%
- Color Hue h*ab Value (egg yolk; trial H-12/99, 2.0 mg/kg feed): 93
- Color Fan Value % of Controls (egg yolk; [3]): 104%
- Color Fan Value Value (egg yolk; [3]): 6
- Color Fan Value, Pigmentation (egg yolk; [3]): +
- Chroma C*ab % of Controls (egg yolk; trial H-12/99, 4.0 mg/kg feed): 98%
- Chroma C*ab Value (egg yolk; trial H-12/99, 4.0 mg/kg feed): 51
- Color Fan Value (egg yolk; trial H-12/99, 4.0 mg/kg feed): 6
- Color Fan Value % of Controls (egg yolk; trial H-12/99, 4.0 mg/kg feed): 97%
- Color Fan Value, Pigmentation (egg yolk; trial H-12/99, 4.0 mg/kg feed): +
- Color Hue h*ab % of Controls (egg yolk; trial H-12/99, 4.0 mg/kg feed): 102%
- Color Hue h*ab Value (egg yolk; trial H-12/99, 4.0 mg/kg feed): 90
- Color Fan Value % of Controls (egg yolk; [4]): 97%
- Color Fan Value Value (egg yolk; [4]): 6
- Color Fan Value, Pigmentation (egg yolk; [4]): +
- Chroma C*ab % of Controls (egg yolk; trial H-12/99, 8.0 mg/kg feed): 96%
- Chroma C*ab Value (egg yolk; trial H-12/99, 8.0 mg/kg feed): 54
- Color Fan Value (egg yolk; trial H-12/99, 8.0 mg/kg feed): 9
- Color Fan Value % of Controls (egg yolk; trial H-12/99, 8.0 mg/kg feed): 156%
- Color Fan Value, Pigmentation (egg yolk; trial H-12/99, 8.0 mg/kg feed): +
- Color Hue h*ab % of Controls (egg yolk; trial H-12/99, 8.0 mg/kg feed): 100%
- Color Hue h*ab Value (egg yolk; trial H-12/99, 8.0 mg/kg feed): 85
- Color Fan Value % of Controls (egg yolk; [5]): 156%
- Color Fan Value Value (egg yolk; [5]): 9
- Color Fan Value, Pigmentation (egg yolk; [5]): +
- Chroma C*ab % of Controls (egg yolk; trial H-19/98, 4.0 mg/kg feed): 97%
- Chroma C*ab Value (egg yolk; trial H-19/98, 4.0 mg/kg feed): 51
- Color Fan Value (egg yolk; trial H-19/98, 4.0 mg/kg feed): 5
- Color Fan Value % of Controls (egg yolk; trial H-19/98, 4.0 mg/kg feed): 79%
- Color Fan Value, Pigmentation (egg yolk; trial H-19/98, 4.0 mg/kg feed): +
- Color Hue h*ab % of Controls (egg yolk; trial H-19/98, 4.0 mg/kg feed): 106%
- Color Hue h*ab Value (egg yolk; trial H-19/98, 4.0 mg/kg feed): 89
- Color Fan Value % of Controls (egg yolk; [6]): 79%
- Color Fan Value Value (egg yolk; [6]): 5
- Color Fan Value, Pigmentation (egg yolk; [6]): +
- Chroma C*ab % of Controls (egg yolk; trial H-25/98, 5.0 mg/kg feed): 99%
- Chroma C*ab Value (egg yolk; trial H-25/98, 5.0 mg/kg feed): 52
- Color Hue h*ab % of Controls (egg yolk; trial H-25/98, 5.0 mg/kg feed): 98%
- Color Hue h*ab Value (egg yolk; trial H-25/98, 5.0 mg/kg feed): 86
- Color Fan Value % of Controls (egg yolk; [7]): 130%
- Color Fan Value Value (egg yolk; [7]): 9
- Color Fan Value (egg yolk; trial H-25/99, 5.0 mg/kg feed): 9
- Color Fan Value % of Controls (egg yolk; trial H-25/99, 5.0 mg/kg feed): 130%
- quality in terms of deposition rate and color intensity (chroma C*a*b*) in the egg yolk (egg yolk; compared to the control): comparable quality
